Assay results as given in patent US7754463B2, “Inhibitors of USP1 Deubiquitinating Enzyme Complex” (Dana-Farber Cancer Institute, priority 2006, dated 2010).
Starred links: 1 amine or outer side, 2 acyl side, 3 side chain; linkers in the order of their positions; H or OH if unused. Positions of bridges follow the written chain, without caps; N, C: chain ends. Non-standard residues stand in square brackets, D forms with d. Residues, ends and D or L forms follow the SMILES beside them. Chains are numbered I, II in the order given. Actinocin(9to1) = Cc1c2oc3c(C)ccc(C(=O)[*:1])c3nc-2c(C(=O)[*:2])c(N)c1=O; NMeV = CN[C@H](C(=O)O)C(C)C; Sar = CNCC(=O)O

What was measured:
USP1 [1] = experiment: USP1 protein level after blocking transcription in 293T cells; assay type: cell-based, human; settings: 5 μg/ml
Experimental: (§1) A) HeLa cells expressing exogenous Flag-HA-USP1 were irradiated with 50 J/m^2 and samples were taken at the indicated times. Flag-HA-USP1 was immunoprecipitated using anti-Flag antibodies and the immunoprecipitates were analyzed by immunoblotting using the indicated antibodies with the exception of Flag-HA-USP1, which was detected using the mouse monoclonal 12CA5 antibody. B) HeLa cells were UV irradiated with 50 J/m^2 (UVC) and samples were taken at the indicated times. Protein samples were analyzed by immunoblotting using the indicated antibodies. C) 293T cells were UV irradiated with 100 J/m^2 (UVC) and samples were taken at the indicated times. Total RNA was prepared an analyzed by Northern blot analysis using the indicated probes. D) Quantification of the USP1 and total RNA intensities from C. E) 293T cells were treated with 5 μg/ml Actinomycin D and samples were taken at the indicated times. Protein samples were analyzed by immunoblotting using the indicated antibodies.
(§2) UAF1 protein levels were not affected by UV irradiation (FIG. 6A and FIG. 6B). It was speculated that one regulatory event that may reduce USP1 activity after DNA damage may be transcriptional down-regulation of the USP1 gene. To test this hypothesis, USP1 mRNA levels were measured in 293T cells after UV irradiation. […]

UAF1 = UAF1 protein level after blocking transcription in 293T cells; assay type: cell-based, human; settings: 5 μg/ml
Experimental: as §1, §2

USP1 mRNA = USP1 mRNA level after transcription inhibition (Northern blot); assay type: cell-based, human; settings: Actinomycin D, UV or both; data not shown
Experimental: Northern blot analysis was performed as described using the 394 nt PstI-EcoRV fragment of the USP1 cDNA (Cohn, M. A., Kramerov, D., Hulgaard, E. F., and Lukanidin, E. M. (1997). The differentiation antigen Ly-6E.1 is expressed in mouse metastatic tumor cell lines. FEBS Lett 403, 181-185).
UAF1 protein levels were not affected by UV irradiation (FIG. 6A and FIG. 6B). It was speculated that one regulatory event that may reduce USP1 activity after DNA damage may be transcriptional down-regulation of the USP1 gene. To test this hypothesis, USP1 mRNA levels were measured in 293T cells after UV irradiation. A rapid decrease of the USP1 mRNA (FIG. 6C) was observed, with kinetics reflecting the decrease of USP1 protein (FIG. 6B). […] To test whether active mRNA degradation also play a role in addition to transcriptional regulation, transcription was inhibited by Actinomycin D, an effective inhibitor of RNA polymerase II, cells were irradiated with UV, or both treatments were combined. […] Importantly, the level of full length USP1 decreased with kinetics similar to those in cells treated with UV irradiation (FIG. 6B).

Ubiquitin-AMC = experiment: In vitro enzymatic activity and kinetics of purified USP1, UAF1 and USP1/UAF1 with Ubiquitin-AMC; assay type: biochemical, human
Experimental: A) Coomassie blue stain of purified USP1 and UAF1 proteins, expressed either alone of simultaneously as a protein complex in Sf9 cells. B) The in vitro enzymatic activity of USP1, UAF1 or the USP1/UAF1 complex was assayed using Ub-AMC as a substrate. The concentration of each protein was 10 nM. C) Calculation of slopes of the curves in B. The activity of USP1 was arbitrarily set to a value of 1. Relative values for UAF1 and USP1/UAF1 were −0.25 and 36.25, respectively. The slightly negative value for UAF1 is a result of photo bleaching during the experiment. D) UAF1 activates USP1 instantly upon binding in vitro. The enzymatic activity of the USP1 enzyme was monitored as UAF1 was added to the reaction. The concentrations of both USP1 and UAF1 were 2 nM. E) Km and kcat values of the USP1 enzyme and the USP1/UAF1 complex were determined by measuring the substrate conversion at constant enzyme concentration (20 nM for USP1 and 2 nM for the USP1/UAF1 complex) and various substrate concentrations (final concentrations of Ub-AMC of 0.6 μM, 0.75 μM, 1 μM, 1.5 μM and 3 μM for USP1; and 0.42 μM, 0.525 μM, 0.7 μM, 1.05 μM, 2.1 μM […] for the USP1/UAF1 complex). Km and kcat values were calculated by plotting the obtained conversion values in a double-reciprocal Lineweaver-Burk plot. Standard deviation of Km and kcat were calculated from 5-6 independent repeats of the above measurements and are shown in brackets in the table.
Transcription/translation in rabbit reticulocyte was performed according to manufactures recommendations with the exception that the reactions were performed at 30° C. (Promega). In vitro enzymatic assays in the presence of 5 μM Ubiquitin-VS (Ubiquitin-Vinyl Sulfone; U-202; Boston Biochem) were performed 30° C. In vitro enzymatic assays using Ubiquitin-AMC (Ubiquitin-7-amido-4-methylcoumarin; U-550; Boston Biochem) were performed in 50-100 μl reaction buffer (20 mM HEPES-KOH pH 7.8, 20 mM NaCl, 0.1 mg/ml Ovalbumin (A7641; Sigma), 0.5 mM EDTA and 10 mM DTT) at 37° C. Fluorescence was monitored in a FluoStar Galaxy Fluorometer (BMG Labtech Inc.). In vitro deubiquitination reactions of Ub-FANCD2 were performed in 10 μl reaction buffer (90 mM Tris-HCl pH 8.0, 50 mM NaCl, 0.03% NP-40, 4 mg/ml BSA and 2 mM DTT) for 2 h at 30° C.
The enzymatic activity of the purified proteins was assayed using fluorogenic Ubiquitin-AMC as a substrate. […] The activity of the USP1/UAF1 heterodimer was about 30-fold higher than the activity of USP1 alone (FIG. 3C).
In order to better understand the enzymatic consequences of the complex-formation between UAF1 and USP1, the kinetic parameters of the USP1 enzyme alone and the UAF1/USP1 complex were determined. […] This mechanism of activation contrasts with that of another deubiquitinating enzyme, Uch37, which is involved in proteasome-mediated protein degradation. Uch37 is activated by the Adrm1 protein. […] Nat Cell Biol 8, 994-1002).

USP1 [2] = biological target: T1, USP1 (Homo sapiens, UniProt O94782, G670A/G671A); experiment: Activation of USP1 enzymatic activity in vitro by UAF1 wild type or mutant protein; assay type: biochemical; settings: all proteins 10 nM, Ub-AMC
T1 construct: His tag (N); made in house; host or cells: Sf9 insect cells
T1 sequence (O94782 1-785 G670A/G671A): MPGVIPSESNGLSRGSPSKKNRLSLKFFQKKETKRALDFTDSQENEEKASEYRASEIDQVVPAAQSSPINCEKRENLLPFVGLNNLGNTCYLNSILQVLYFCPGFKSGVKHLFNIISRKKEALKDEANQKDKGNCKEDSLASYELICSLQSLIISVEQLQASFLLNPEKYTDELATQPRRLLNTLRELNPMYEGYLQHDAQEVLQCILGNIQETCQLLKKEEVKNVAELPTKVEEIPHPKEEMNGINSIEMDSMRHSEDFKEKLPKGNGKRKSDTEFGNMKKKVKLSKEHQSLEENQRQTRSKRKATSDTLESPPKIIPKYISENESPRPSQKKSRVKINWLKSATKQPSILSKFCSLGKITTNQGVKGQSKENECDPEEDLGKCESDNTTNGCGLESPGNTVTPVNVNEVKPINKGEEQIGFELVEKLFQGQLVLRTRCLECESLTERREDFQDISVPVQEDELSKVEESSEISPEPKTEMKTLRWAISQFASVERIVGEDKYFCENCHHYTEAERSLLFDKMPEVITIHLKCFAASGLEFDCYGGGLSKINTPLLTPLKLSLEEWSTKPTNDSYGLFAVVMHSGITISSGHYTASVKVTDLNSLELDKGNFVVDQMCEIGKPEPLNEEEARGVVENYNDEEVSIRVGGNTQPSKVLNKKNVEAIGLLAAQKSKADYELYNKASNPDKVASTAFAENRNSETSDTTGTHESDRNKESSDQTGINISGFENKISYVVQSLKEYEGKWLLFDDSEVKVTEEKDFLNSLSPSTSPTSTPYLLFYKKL
Experimental: A) Scheme of wild type UAF1 and deletion mutants thereof. B) Flag-tagged deletion mutants of UAF1 were transiently expressed in 293T cells. The Flag-tagged proteins were immunoprecipitated from cell lysates using anti-Flag antibodies. The immunoprecipitates were analyzed using the indicated antibodies. C) A mutant protein of UAF1 where the second WD40 repeat has been deleted (UAF1-ΔWD2) fails to activate USP1 enzymatic activity in vitro. Strep-tagged UAF1-ΔWD2 was expressed and purified from Sf9 insect cells. The enzymatic activity of the USP1 enzyme was monitored as UAF1 wild type or mutant proteins was added to the reaction. The concentrations of all proteins were 10 nM.
The above experiments were performed using a preformed USP1/UAF1 complex. To gain further insight into the dynamics of USP1/UAF1 complex formation and USP1 activation, the kinetics of UAF1 binding and activation of USP1 were investigated. An in vitro enzymatic reaction of USP1 was set up using Ubiquitin-AMC as a substrate. Ten minutes into the reaction, during the stable and low substrate-turnover, either buffer or purified UAF1 protein was added in an equimolar amount to USP1. […] Given the affinity between the two proteins, it was predicted that as USP1 is synthesized in the cell, it rapidly forms a complex with UAF1. If UAF1 is not available, the protein is destabilized and degraded. […]

Row | Molecule | USP1 protein levels over time (USP1 [1]) | level of UAF1 protein (UAF1) | USP1 mRNA level (USP1 mRNA) | relative activity (slope of Ub-AMC curve), USP1 set to 1 (Ubiquitin-AMC; 10 nM each protein) | deubiquitinating activity on Ubiquitin-AMC (Ubiquitin-AMC; purified protein alone) | stimulation of USP1 enzymatic activity (USP1 [2])
1 | Cc1c2oc3c(C)ccc(C(=O)N[C@@H]4C(=O)N[C@H](C(C)C)C(=O)N5CCC[C@H]5C(=O)N(C)CC(=O)N(C)[C@@H](C(C)C)C(=O)O[C@@H]4C)c3nc-2c(C(=O)N[C@@H]2C(=O)N[C@H](C(C)C)C(=O)N3CCC[C@H]3C(=O)N(C)CC(=O)N(C)[C@@H](C(C)C)C(=O)O[C@@H]2C)c(N)c1=O [Actinomycin D] (I: T[dV]P[Sar][NMeV] / II: T[dV]P[Sar][NMeV]; ester I:1-I:C, II:1-II:C; linker I:N-II:N via Actinocin(9to1)) | decrease of USP1 protein levels over time | remained unchanged | decreased with similar kinetics in all three cases | – | – | –
2 | UAF1: purified USP1 Associated Factor 1, WD40 repeat protein (SEQ ID NO:4) | – | – | – | −0.25 | no detectable deubiquitinating activity | able to stimulate the enzymatic activity of USP1
